From US9637491B2, “Pyrazolo[4,3-D]pyrimidines as kinase inhibitors” (Origenis GmbH, priority 2012, dated 2017) come the findings set out here.

pIC50: −log10 of the molar value.

The term pIC50 denotes the IC50 on a negative log10 scale, so that one unit is a factor of ten.

The target of this assay is T1, SYK kinase (Homo sapiens, UniProt P43405).
T1 construct: purchased Invitrogen, Carlsbad
Kind of assay: SYK assay (OMNIA Kinase Assay, Invitrogen). The class given is biochemical. Conditions: SYK Activities; 1 mM ATP, 10 μM Omnia Peptide Substrate Tyr 7, 30° C. In short, it runs like this: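 Continuous-read fluorescence kinase assay: SOX-labelled Tyr 7 peptide (10 μM) with 1 mM ATP and 0.2 mM DTT, 30° C, reaction started by adding SYK. Fluorescence (ex 360/em 485 nm) read every 30 s for 30 min. IC50 from sigmoidal fit of reaction velocity versus inhibitor concentration.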
For the compound `c1nn(C2CCOCC2)cc1Nc1nc(-c2nc3c(s2)CCCC3)nc2cn[nH]c12` [Example 496, N-(1-(tetrahydro-2H-pyran-4-yl)-1H-pyrazol-4-yl)-5-(4,5,6,7-tetrahydrobenzo[d]thiazol-2-yl)-1H-pyrazolo[4,3-d]pyrimidin-7-amine], the negative-log IC50 (pIC50) is 7.00 to 8.00. Next, `CN1C(=O)COc2ccc(Nc3nc(C4CC4)nc4cn[nH]c34)cc21` [Example 497, 6-((5-cyclopropyl-1H-pyrazolo[4,3-d]pyrimidin-7-yl)amino)-4-methyl-2H-benzo[b][1,4]oxazin-3(4H)-one]: 6.00 to 7.00; `CC(C)C(C)n1cc(Nc2nc(C3CC3)nc3cn[nH]c23)cn1` (stereo not shown) [Example 498, 5-cyclopropyl-N-(1-(3-methylbutan-2-yl)-1H-pyrazol-4-yl)-1H-pyrazolo[4,3-d]pyrimidin-7-amine]: 7.00 to 8.00; `CN1CCN(C(=O)c2ccc(Nc3nc(-c4c(F)cccc4F)nc4cn[nH]c34)cc2)CC1` [Example 500, (4-((5-(2,6-difluorophenyl)-1H-pyrazolo[4,3-d]pyrimidin-7-yl)amino)phenyl)(4-methylpiperazin-1-yl)methanone]: 6.00 to 7.00. For `OCCN1CCN(c2ccc(Nc3nc(-c4c(F)cccc4F)nc4cn[nH]c34)cc2)CC1` [Example 501, 2-(4-(4-((5-(2,6-difluorophenyl)-1H-pyrazolo[4,3-d]pyrimidin-7-yl)amino)phenyl)piperazin-1-yl)ethan-1-ol], the pIC50 is 7.00 to 8.00. The result for `N#Cc1cc(Nc2nc(-c3c(F)cccc3F)nc3cn[nH]c23)ccc1N1CCOCC1` [Example 502, 5-((5-(2,6-difluorophenyl)-1H-pyrazolo[4,3-d]pyrimidin-7-yl)amino)-2-morpholinobenzonitrile] reads 7.00 to 8.00; that for `O=C(C1CC1)N1CCCc2ccc(Nc3nc(C4CC4)nc4cn[nH]c34)cc21` [Example 503, cyclopropyl(7-((5-cyclopropyl-1H-pyrazolo[4,3-d]pyrimidin-7-yl)amino)-3,4-dihydroquinolin-1(2H)-yl)methanone], 6.00 to 7.00; that for `CC(C(=O)O)n1cc(Nc2nc(C3CC3)nc3cn[nH]c23)cn1` (stereo not shown) [Example 504, 2-(4-((5-cyclopropyl-1H-pyrazolo[4,3-d]pyrimidin-7-yl)amino)-1H-pyrazol-1-yl)propanoic acid], 6.00 to 7.00. Next, `c1nn(C2CCCOC2)cc1Nc1nc(-c2ccc3cn[nH]c3c2)nc2cn[nH]c12` (stereo not shown) [Example 505, 5-(1H-indazol-6-yl)-N-(1-(tetrahydro-2H-pyran-3-yl)-1H-pyrazol-4-yl)-1H-pyrazolo[4,3-d]pyrimidin-7-amine]: 7.00 to 8.00; `Oc1ccccc1Nc1nc(-c2ccc3cn[nH]c3c2)nc2cn[nH]c12` [Example 506, 2-((5-(1H-indazol-6-yl)-1H-pyrazolo[4,3-d]pyrimidin-7-yl)amino)phenol]: 6.00 to 7.00. The result for `COc1cc(Nc2nc([C@H]3C[C@@H]3c3ccccc3)nc3cn[nH]c23)ccc1N1CCOCC1` [Example 508, N-(3-methoxy-4-morpholinophenyl)-5-((1S,2S)-2-phenylcyclopropyl)-1H-pyrazolo[4,3-d]pyrimidin-7-amine] reads 6.00 to 7.00; that for `COc1ccc(Nc2nc(-c3cnn(C(C)C(C)C)c3)nc3cn[nH]c23)cc1OC` (stereo not shown) [Example 511, N-(3,4-dimethoxyphenyl)-5-(1-(3-methylbutan-2-yl)-1H-pyrazol-4-yl)-1H-pyrazolo[4,3-d]pyrimidin-7-amine], 6.00 to 7.00. As for `COc1ccc(Nc2nc(-c3c(F)cccc3Cl)nc3cn[nH]c23)cc1OC` [Example 513, 5-(2-chloro-6-fluorophenyl)-N-(3,4-dimethoxyphenyl)-1H-pyrazolo[4,3-d]pyrimidin-7-amine], the pIC50 was 6.00 to 7.00.

In turn, `COc1cc(Nc2nc(-c3c(F)cccc3Cl)nc3cn[nH]c23)ccc1N1CCOCC1` [Example 514, 5-(2-chloro-6-fluorophenyl)-N-(3-methoxy-4-morpholinophenyl)-1H-pyrazolo[4,3-d]pyrimidin-7-amine] showed a negative logarithm of the IC50 (pIC50) of 7.00 to 8.00. Consider `c1ccc(Sc2ccc(Nc3nc(-c4ccc5cn[nH]c5c4)nc4cn[nH]c34)cc2)cc1` [Example 515, 5-(1H-indazol-6-yl)-N-(4-(phenylthio)phenyl)-1H-pyrazolo[4,3-d]pyrimidin-7-amine], for which the negative-log IC50 (pIC50) is 6.00 to 7.00. As to `O=C1CCCc2ccc(Nc3nc(-c4ccc5cn[nH]c5c4)nc4cn[nH]c34)cc2N1` [Example 516, 8-((5-(1H-indazol-6-yl)-1H-pyrazolo[4,3-d]pyrimidin-7-yl)amino)-4,5-dihydro-1H-benzo[b]azepin-2(3H)-one], the negative logarithm of the IC50 (pIC50) was 7.00 to 8.00. Next, `FC(F)(F)Cn1cc(Nc2nc(-c3ccc4cn[nH]c4c3)nc3cn[nH]c23)cn1` [Example 517, 5-(1H-indazol-6-yl)-N-(1-(2,2,2-trifluoroethyl)-1H-pyrazol-4-yl)-1H-pyrazolo[4,3-d]pyrimidin-7-amine]: 7.00 to 8.00; `O=C1COc2ccc(Nc3nc(-c4ccc5cn[nH]c5c4)nc4cn[nH]c34)cc2N1` [Example 519, 6-((5-(1H-indazol-6-yl)-1H-pyrazolo[4,3-d]pyrimidin-7-yl)amino)-2H-benzo[b][1,4]oxazin-3(4H)-one]: greater than 8.00; `O=C1CSc2ccc(Nc3nc(-c4ccc5cn[nH]c5c4)nc4cn[nH]c34)cc2N1` [Example 520, 6-((5-(1H-indazol-6-yl)-1H-pyrazolo[4,3-d]pyrimidin-7-yl)amino)-2H-benzo[b][1,4]thiazin-3(4H)-one]: 6.00 to 7.00. Regarding `O=C1CCCc2ccc(Nc3nc(-c4c(F)cccc4F)nc4cn[nH]c34)cc2N1` [Example 521, 8-((5-(2,6-difluorophenyl)-1H-pyrazolo[4,3-d]pyrimidin-7-yl)amino)-4,5-dihydro-1H-benzo[b]azepin-2(3H)-one], the pIC50 is 6.00 to 7.00.

In turn, `OC1CCN(c2ccc(Nc3nc(-c4c(F)cccc4F)nc4cn[nH]c34)cc2)CC1` [Example 522, 1-(4-((5-(2,6-difluorophenyl)-1H-pyrazolo[4,3-d]pyrimidin-7-yl)amino)phenyl)piperidin-4-ol] gave a pIC50 of 7.00 to 8.00. Next, `COc1ccc(Nc2nc(-c3c(F)cccc3F)nc3cn[nH]c23)cc1NC(C)=O` [Example 523, N-(5-((5-(2,6-difluorophenyl)-1H-pyrazolo[4,3-d]pyrimidin-7-yl)amino)-2-methoxyphenyl)acetamide]: 6.00 to 7.00; `NS(=O)(=O)c1cccc(-c2nc(Nc3ccc4c(c3)NC(=O)CCC4)c3[nH]ncc3n2)c1` [Example 525, 3-(7-((2-oxo-2,3,4,5-tetrahydro-1H-benzo[b]azepin-8-yl)amino)-1H-pyrazolo[4,3-d]pyrimidin-5-yl)benzenesulfonamide]: 7.00 to 8.00; `NS(=O)(=O)c1cccc(-c2nc(Nc3cnn(CCO)c3)c3[nH]ncc3n2)c1` [Example 526, 3-(7-((1-(2-hydroxyethyl)-1H-pyrazol-4-yl)amino)-1H-pyrazolo[4,3-d]pyrimidin-5-yl)benzenesulfonamide]: 7.00 to 8.00. The result for `CS(=O)(=O)Nc1cccc(-c2nc(Nc3ccc4c(c3)NC(=O)CCC4)c3[nH]ncc3n2)c1` [Example 529, N-(3-(7-((2-oxo-2,3,4,5-tetrahydro-1H-benzo[b]azepin-8-yl)amino)-1H-pyrazolo[4,3-d]pyrimidin-5-yl)phenyl)methanesulfonamide] reads 6.00 to 7.00.
